# Test results reported in patent publication US12643889B2, “Synthesis of novel EP4 antagonist and use in cancer and inflammation” (Wuhan Humanwell Innovative Drug Research And Development …, priority 2020, dated 2026).
# Columns and labels:
# [1] = target: T1, recombinant human EP4 receptor membrane protein (Homo sapiens, UniProt P35408); test: Radioligand binding assay for EP4 receptor ([3H]-PGE2); conditions: [3H]-PGE2 1.5 nM; membrane protein 20 μg/well
# T1 construct: expressed in transfected cells; host or cells: membranes of 293 cells overexpressing human EP4 receptor
# T1 sequence (P35408 whole entry): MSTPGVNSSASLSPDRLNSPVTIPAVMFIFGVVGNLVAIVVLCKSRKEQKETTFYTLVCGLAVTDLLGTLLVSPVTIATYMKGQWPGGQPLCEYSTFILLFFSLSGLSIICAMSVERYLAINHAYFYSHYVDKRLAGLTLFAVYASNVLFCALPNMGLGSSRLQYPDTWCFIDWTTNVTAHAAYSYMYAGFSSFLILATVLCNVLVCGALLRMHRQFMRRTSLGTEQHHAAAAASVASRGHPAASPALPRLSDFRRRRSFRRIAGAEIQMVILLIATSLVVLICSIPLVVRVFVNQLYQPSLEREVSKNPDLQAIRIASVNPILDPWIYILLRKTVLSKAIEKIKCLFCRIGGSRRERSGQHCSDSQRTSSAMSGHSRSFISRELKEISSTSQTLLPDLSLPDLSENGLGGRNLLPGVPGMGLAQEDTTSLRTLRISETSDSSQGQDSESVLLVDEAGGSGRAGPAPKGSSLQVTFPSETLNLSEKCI
# Experimental: The compounds to be tested and PGE2 were formulated as 10 mM stocks in a DMSO solvent, and then 8 concentration points of 4× working solution were serially diluted using a buffer (50 mM HBSS, 0.1% BSA, 500 mM NaCl). […] Unifilter-96 GF/C filter plate (Perkin Elmer) was soaked with 0.5% BSA, 50 μL per well, for at least 30 min at room temperature. After binding was complete, the reaction mixture was harvested through a GF/C plate using a Perkin Elmer Filtermate Harvester, followed by washing the filter plate and drying the filter plate for 1 hour at 50° C. After drying, the bottom of the filter plate wells was sealed using a Perkin Elmer Unifilter-96 sealing tape, and 50 μL of MicroScint™-20 cocktail (Perkin Elmer) was added to seal the top of the filter plate. The ^3H counts captured on the filter were read using a Perkin Elmer MicroBeta2 Reader.
# The IC50 and Ki values of the compounds determined by the radioligand binding assay for EP4 receptor were calculated based on the inhibition rate of the different concentrations of the compounds.
# [2] = Canine pharmacokinetic assay; format: in vivo, male Beagle dogs
# Experimental: (§1) In a mouse pharmacokinetic assay, male ICR mice (20 g to 25 g) were selected and fasted overnight. Three mice were selected and intragastrically administered with 5 mg/kg of the corresponding compound. The blood of the mice was collected before the administration and at 15 min, 30 min, 1 h, 2 h, 4 h, 8 h, 24 h after the administration. Another 3 mice were intravenously administered with 1 mg/kg of the corresponding compound, and the blood thereof was collected before the administration and at 15 min, 30 min, 1 h, 2 h, 4 h, 8 h, 24 h after the administration. The blood samples were centrifuged at 6800 g at 2° C. to 8° C. for 6 minutes, and plasma was collected and stored at −80° C. The plasma was taken at respective time point, mixed with 3-5 times the amount of acetonitrile containing internal standard, vortexed for 1 minute, centrifuged at 4° C. for 10 minutes at 13000 rpm, supernatant was added 3 times the amount of water, and the appropriate mixture was taken for LC-MS/MS analysis. The primary pharmacokinetic parameters were analyzed with a WinNonlin 7.0 software, with non-compartmental model.
# In a canine pharmacokinetic assay, male Beagle dogs (8 kg to 10 Kg) were selected and fasted overnight. Three Beagle dogs were taken and intragastrically administered with 3 mg/kg of the corresponding compound. Another 3 Beagle dogs were intravenously administered with 1 mg/kg of the corresponding compound. The following operations were the same as the mouse pharmacokinetic assay.
# [3] = Rat pharmacokinetic assay; format: in vivo, male SD rats
# Experimental: as §1
# In a rat pharmacokinetic assay, male SD rats (180 g to 240 g) were selected and fasted overnight. Three rats were intragastrically administered with 5 mg/kg of the corresponding compound. Another 3 rats were intravenously administered with 1 mg/kg of the corresponding compound. The following operations were the same as the mouse pharmacokinetic assay.
# [4] = male, Beagle, dog, plasma, canine, intravenous administration 1 mg/kg
# [5] = male, Beagle, dog, plasma, canine, oral gavage administration 3 mg/kg
# [6] = male, SD, plasma, rat, intravenous administration 1 mg/kg
# [7] = male, SD, plasma, rat, oral gavage administration 5 mg/kg
smiles,measurement,setting,value
"C[C@H](NC(=O)c1c(C(F)F)nn(C)c1Oc1cccc(C(C)(F)F)c1)c1ccc(C(=O)O)cc1 [Compound I-5, (S)-4-(1-(5-(3-(1,1-difluoroethyl)phenoxy)-3-(difluoromethyl)-1-methyl-1H-pyrazole-4-carboxamido)ethyl)benzoic Acid]",IC50,[1],5.3 nM
same,Ki,[1],2.9 nM
same,exposure after oral administration relative to the control compound,"[2]; canines, oral administration",about 2 times
same,AUC(0-t),[2]; [4],4370 ng·h/mL
same,clearance,[2]; [4],3.5 mL/min/kg
same,half-life,[2]; [4],9.73 h
same,Vd,"[2]; male, Beagle, dog, plasma, canine, intravenous administration 1 mg/kg, read-out: Vz",2.84 L/kg
same,AUC(0-t),[2]; [5],10300 ng·h/mL
same,Cmax,[2]; [5],4820 ng/mL
same,Tmax,[2]; [5],0.25 h
same,half-life,[2]; [5],19.9 h
same,AUC(0-t),[3]; [6],1670 ng·h/mL
same,clearance,[3]; [6],9.5 mL/min/kg
same,half-life,[3]; [6],9.3 h
same,Vd,"[3]; male, SD, plasma, rat, intravenous administration 1 mg/kg, read-out: Vz",7.66 L/kg
same,AUC(0-t),[3]; [7],10800 ng·h/mL
same,Cmax,[3]; [7],993 ng/mL
same,Tmax,[3]; [7],2 h
same,half-life,[3]; [7],9.87 h
same,exposure after oral administration relative to the control compound,"[3]; rats, oral administration",about 2 times
